Laboratory results reported in the NIST ThermoML archive (doi:10.1021/je100932m).
Numbers after ± are expanded uncertainties.

Conditions: Liquid

Row | Compound | vapor or sublimation pressure (337.57 K) | vapor or sublimation pressure (329.97 K)
1 | CO [methanol] | 101.3 ± 0.86 kPa | 
2 | COC(C)=O [methyl ethanoate] |  | 101.3 ± 0.86 kPa
